Source: US20240409556A1, “BENZOPIPERAZINE AND RELATED ANALOGS FOR INHIBITING YAP/TAZ-TEAD” (Springworks Therapeutics, Inc., priority 2023, published 2024)

System: YAP/TAZ-TEAD transcription
Assay: Reporter gene assay for measuring the inhibition of YAP/TAZ-TEAD transcription (TEAD-responsive element luciferase reporter in Hek293T cells)
Assay type: cell-based
Settings: 24 hours incubation
Experimental: Example 56: Activity of Compounds of the Disclosure in a Reporter Gene Assay for Measuring the Inhibition of YAP/TAZ-TEAD Transcription
Hek293T cells were cultured in DMEM supplemented with 10% fetal bovine serum, Sodium pyruvate, Sodium bicarbonate, L-glutamine. The cells were harvested and transiently transfected with TEAD-responsive element luciferase reporter. Transfected cells were plated in 384-well plate containing pre-diluted compounds. After 24 hours incubation at 37° C./5% CO2, assay plates were cooled to room temperature and levelled to an equal volume per well, prior to the addition of 25 uL luciferase substrate SteadyLite (Perkin Elmer)/well. The plate was shaken for 10 min at 600 rpm, centrifuged for 1 min at 500 rpm and measured with an Envision reader (PerkinElmer). The amount of relative light units produced by the TEAD reporter was used to calculate the percentage of inhibition.
The percent of reporter inhibition was calculated in the presence of a positive control inhibitor (100% inhibition) versus a condition with the presence of the vehicle basal activity of the reporter (0% inhibition). The ability of a test compound to inhibit this activity was determined as: Percentage inhibition=[[…]((RLU determined in the presence of vehicle−RLU determined for sample with test compound present) divided by (RLU determined in the presence of vehicle−RLU determined for sample with positive control inhibitor))]*100.
The activities of example compounds tested are depicted in Table 3. The activity ranges A, B and C refer to IC50 values in the reporter gene assay as follows: “A”: IC50<1 μM; “B”: 1 μM≤IC50≤10 μM and “C”: IC50>10 μM; NT=not tested.

Compound	IC50 [µM]
CC(=O)NCC1CN(c2ccc(C(F)(F)F)cc2)c2ccccc2O1 (single isomer, unassigned) [36-En2, (R)- or (S)-N-((4-(4-(trifluoromethyl)phenyl)-3,4-dihydro-2H-benzo[b][1,4]oxazin-2-yl)methyl)acetamide]	< 1
COc1ccc2c(n1)OC(CNC(C)=O)CN2c1ccc(C(F)(F)F)cc1 (centres unmarked) [compound 73, N-((6-methoxy-1-(4-(trifluoromethyl)phenyl)-2,3-dihydro-1H-pyrido[2,3-b][1,4]oxazin-3-yl)methyl)acetamide]	< 1
O=C(O)C1(F)CCN2c3ccccc3N(c3ccc(C(F)(F)F)cc3)CC2C1 [123-D3, (6aS,8S)- or (6aR,8S)- or (6aR,8R)- or (6aS,8R)-8-fluoro-5-(4-(trifluoromethyl)phenyl)-6,6a,7,8,9,10-hexahydro-5H-pyrido[1,2-a]quinoxaline-8-carboxylic acid]	< 1
CC(=O)NCC1CN(c2ccc(C(F)(F)F)cc2)c2ccccc2N1 (single isomer, unassigned) [34-En1, (R)- or (S)-N-((4-(4-(trifluoromethyl)phenyl)-1,2,3,4-tetrahydroquinoxalin-2-yl)methyl)acetamide]	< 1

The next lines start with the values.

IC50 [µM]	Compound
< 1	O=C(O)C1CCN2c3ncccc3N(c3ccc(C(F)(F)F)cc3)CC2C1 [96A-En2, (6aS,8S)- or (6aR,8S)- or (6aR,8R)- or (6aS,8R)-5-(4-(trifluoromethyl)phenyl)-6,6a,7,8,9,10-hexahydro-5H-dipyrido[1,2-a:3′,2′-e]pyrazine-8-carboxylic acid]
< 1	CC(=O)N1CC(=O)N2c3ccccc3N(c3ccc(C(F)(F)F)cc3)CC2C1 (single isomer, unassigned) [79-En2, (R)- or (S)-3-acetyl-6-(4-(trifluoromethyl)phenyl)-2,3,4,4a,5,6-hexahydro-1H-pyrazino[1,2-a]quinoxalin-1-one]
1 to 10	CC(=O)N1CCN2c3ccccc3N(c3ccc(C(F)(F)F)cc3)CC2C1 (single isomer, unassigned) [15-En1, (R)- or (S)-1-(6-(4-(trifluoromethyl)phenyl)-1,2,4,4a,5,6-hexahydro-3H-pyrazino[1,2-a]quinoxalin-3-yl)ethan-1-one]
1 to 10	CC(=O)NCC1CN(c2ccc(C(F)(F)F)cc2)c2cccnc2O1 (single isomer, unassigned) [49-En2, (R)- or (S)-N-((1-(4-(trifluoromethyl)phenyl)-2,3-dihydro-1H-pyrido[2,3-b][1,4]oxazin-3-yl)methyl)acetamide]
< 1	CC(=O)N1CC(=O)N2c3ccccc3N(c3ccc(C(F)(F)F)cc3)CC2C1 (centres unmarked) [compound 79]
< 1	CC(=O)N1CCN2c3ncccc3N(c3ccc(C(F)(F)F)cc3)CC2C1 (single isomer, unassigned) [29-En2, (R)- or (S)-1-(5-(4-(trifluoromethyl)phenyl)-5,6,6a,7,9,10-hexahydro-8H-pyrazino[1,2-a]pyrido[3,2-e]pyrazin-8-yl)ethan-1-one]

Same assay, conditions: Homo sapiens, HEK-293T, 24 h, 24 hours incubation

Compound	IC50 [µM]
CC(=O)NCC1CN(c2ccc(C(F)(F)F)cc2)c2ccc(C(F)F)nc2O1 (centres unmarked) [compound 112, N-((6-(difluoromethyl)-1-(4-(trifluoromethyl)phenyl)-2,3-dihydro-1H-pyrido[2,3-b][1,4]oxazin-3-yl)methyl)acetamide]	< 1
O=C(O)C1CCN(c2ccccc2Oc2ccc(C(F)(F)F)cc2)CC1 [compound 120, 1-(2-(4-(trifluoromethyl)phenoxy)phenyl)piperidine-4-carboxylic acid]	< 1
FC(F)(F)c1ccc(N2CCN(Cc3cccnc3)c3ccccc32)cc1 [compound 64, 1-(pyridin-3-ylmethyl)-4-(4-(trifluoromethyl)phenyl)-1,2,3,4-tetrahydroquinoxaline]	1 to 10
Cn1cncc1CN1CCN(c2ccc(C(F)(F)F)cc2)c2ccccc21 [compound 60, 1-((1-methyl-1H-imidazol-5-yl)methyl)-4-(4-(trifluoromethyl)phenyl)-1,2,3,4-tetrahydroquinoxaline]	< 1
CC(=O)NCC1CN(c2ccc(C(F)(F)F)cc2)c2ccccc2N1CC#N (centres unmarked) [compound 4, N-((1-(cyanomethyl)-4-(4-(trifluoromethyl)phenyl)-1,2,3,4-tetrahydroquinoxalin-2-yl)methyl)acetamide]	1 to 10
FC(F)(F)c1ccc(N2CCN(Cc3nnc[nH]3)c3ccccc32)cc1 [compound 50, 1-((4H-1,2,4-triazol-3-yl)methyl)-4-(4-(trifluoromethyl)phenyl)-1,2,3,4-tetrahydroquinoxaline]	< 1
CC(=O)NCC1CN(c2ccc(C(F)(F)F)cc2)c2ccccc2N1CCCO (centres unmarked) [compound 6, N-((1-(3-hydroxypropyl)-4-(4-(trifluoromethyl)phenyl)-1,2,3,4-tetrahydroquinoxalin-2-yl)methyl)acetamide]	> 10
O=Cc1ccc(CN2CCN3c4ccccc4N(c4ccc(C(F)(F)F)cc4)CC3C2)cc1O (centres unmarked) [compound 30, 2-hydroxy-4-((6-(4-(trifluoromethyl)phenyl)-1,2,4,4a,5,6-hexahydro-3H-pyrazino[1,2-a]quinoxalin-3-yl)methyl)benzaldehyde]	1 to 10
CC(=O)NCC1CN(c2ccc(C(F)(F)F)cc2)c2ccc(C)nc2O1 (centres unmarked) [compound 77, N-((6-methyl-1-(4-(trifluoromethyl)phenyl)-2,3-dihydro-1H-pyrido[2,3-b][1,4]oxazin-3-yl)methyl)acetamide]	< 1
C=CC(=O)NCC1CN(c2ccc(C(F)(F)F)cc2)c2ccccc2N1CCCO (centres unmarked) [compound 5, N-((1-(3-hydroxypropyl)-4-(4-(trifluoromethyl)phenyl)-1,2,3,4-tetrahydroquinoxalin-2-yl)methyl)acrylamide]	< 1

Now from value to compound:

IC50 [µM]	Compound
< 1	CNC(=O)O[C@H]1C[C@@H]2CN(c3ccc(C(F)(F)F)cc3)c3cccnc3N2C1 [55-En1, (6aR,8S)-5-(4-(trifluoromethyl)phenyl)-5,6,6a,7,8,9-hexahydropyrido[3,2-e]pyrrolo[1,2-a]pyrazin-8-yl methylcarbamate]
< 1	CC(=O)NC[C@H]1CN(c2ccc(C(F)(F)F)cc2)c2cccnc2N1 [39-En1, (S)-N-((1-(4-(trifluoromethyl)phenyl)-1,2,3,4-tetrahydropyrido[2,3-b]pyrazin-3-yl)methyl)acetamide]
1 to 10	CC(=O)N1CCN2c3ncccc3N(c3ccc(C(F)(F)F)nc3)CC2C1 (centres unmarked) [compound 54, 1-(5-(6-(trifluoromethyl)pyridin-3-yl)-5,6,6a,7,9,10-hexahydro-8H-pyrazino[1,2-a]pyrido[3,2-e]pyrazin-8-yl)ethan-1-one]
< 1	O=C(O)C1CCN2c3ncccc3N(c3ccc(C(F)(F)F)cc3)CC2C1 [96A-En1, (6aS,8S)- or (6aR,8S)- or (6aR,8R)- or (6aS,8R)-5-(4-(trifluoromethyl)phenyl)-6,6a,7,8,9,10-hexahydro-5H-dipyrido[1,2-a:3′,2′-e]pyrazine-8-carboxylic acid]
1 to 10	O=C(O)[C@H]1C[C@@H]2CN(c3ccc(C(F)(F)F)cc3)c3cccnc3N2C1 [compound 113, (6aR,8S)-5-(4-(trifluoromethyl)phenyl)-5,6,6a,7,8,9-hexahydropyrido[3,2-e]pyrrolo[1,2-a]pyrazine-8-carboxylic acid]
< 1	CNC(=O)N[C@@H]1C[C@@H]2CN(c3ccc(C(F)(F)F)cc3)c3cccnc3N2C1 [compound 84, 1-methyl-3-((6aR,8R)-5-(4-(trifluoromethyl)phenyl)-5,6,6a,7,8,9-hexahydropyrido[3,2-e]pyrrolo[1,2-a]pyrazin-8-yl)urea]
< 1	CNS(=O)(=O)N1CCN2c3ncccc3N(c3ccc(C(F)(F)F)cc3)CC2C1 (centres unmarked) [compound 45, N-methyl-5-(4-(trifluoromethyl)phenyl)-5,6,6a,7,9,10-hexahydro-8H-pyrazino[1,2-a]pyrido[3,2-e]pyrazine-8-sulfonamide]
1 to 10	CN1CCN2c3ccccc3N(c3ccc(C(F)(F)F)cc3)CC2C1 (centres unmarked) [compound 26, 3-methyl-6-(4-(trifluoromethyl)phenyl)-2,3,4,4a,5,6-hexahydro-1H-pyrazino[1,2-a]quinoxaline]
> 10	CS(=O)(=O)N1CCN2C(=O)CN(c3ccc(C(F)(F)F)cc3)CC2C1 (centres unmarked) [compound 71, 8-(methylsulfonyl)-2-(4-(trifluoromethyl)phenyl)octahydro-4H-pyrazino[1,2-a]pyrazin-4-one]
< 1	CC1(C(=O)O)CCN2c3ccccc3N(c3ccc(C(F)(F)F)cc3)CC2C1 (stereo not drawn) [compound 114, (cis)- or (trans)-8-methyl-5-(4-(trifluoromethyl)phenyl)-6,6a,7,8,9,10-hexahydro-5H-pyrido[1,2-a]quinoxaline-8-carboxylic acid]
< 1	CC(=O)N[C@@H]1C[C@@H]2CN(c3ccc(C(F)(F)F)cc3)c3cccnc3N2C1 [70-D1, N-((6aR,8R)-5-(4-(trifluoromethyl)phenyl)-5,6,6a,7,8,9-hexahydropyrido[3,2-e]pyrrolo[1,2-a]pyrazin-8-yl)acetamide]
< 1	COC(=O)N[C@@H]1C[C@@H]2CN(c3ccc(C(F)(F)F)cc3)c3cccnc3N2C1 [compound 83, methyl ((6aR,8R)-5-(4-(trifluoromethyl)phenyl)-5,6,6a,7,8,9-hexahydropyrido[3,2-e]pyrrolo[1,2-a]pyrazin-8-yl)carbamate]
